Values belong to the molecule of their own block, whether it stands above or below them.
Legend:
[1] = system: Normal human melanocytes NHM (HEMn-MP, Clonetics); assay: Quantification of melanin synthesis in cell culture; assay type: cell-based; settings: for Melanin content, percentage of the control: three days, absorbance 405 nm
Description: Normal human melanocytes NHM (HEMn-MP, Clonetics) were seeded in 96 well cell culture plates and grown to sub-confluence for two days in a mixture of M2-Medium (Clonetics) and Medium (Promocell). Culture medium was exchanged with Culture Medium containing Steviol and melanogenesis progressed for another three days at 37° C. with another medium exchange on day two. Including cell layer and culture supernatant the total melanin was extracted using 1.7M KOH with vigorous shaking at RT. We measured melanin content at 405 nm in an absorbance plate reader. The data is normalized to 100% for the un-treated control sample, and expressed as percentage of the control.

[2] = system: normal human scalp skin hair follicles; assay: Hair follicle melanogenesis (in vitro graying of cultured anagen VI scalp hair follicles); assay type: cell-based; parameters: key: remaining pigmentation is scored minimal (+); steviol 1.25 μM (++); Remaining pigmentation is scored (+++); settings: seven day culture
Source text: For optimal quality of hair follicles with an intact pigmentary-unit, normal human scalp skin hair follicles in the anagen VI stage of the hair cycle were isolated from scalp skin biopsies obtained from elective plastic surgery after obtaining informed consent from patients following the protocol published by Philpott and colleagues with slight modifications (Philpott et al. 1990, Philpott 1999). Briefly, after separation of epidermis and dermis from subcutaneous fat the dermis just above the dermis/subcutis border under a binocular dissecting microscope, the proximal two thirds of anagen hair follicles located in the subcutaneous fat were isolated using watchmakers forceps and subsequently collected in Petri dishes containing complete hair follicle culture medium (Williams E, Biochrom KG seromed, Berlin, Germany); 1% Penicillin-Streptomycin; 1% L-Glutamine 200 mM; 0.02% hydrocortisone; 0.1% Insulin. Three hair follicles per well were then randomly distributed and cultured in 24 well plates (Costar, N.Y., USA) containing […] of complete hair follicle culture medium per well. Per experiment, a minimum of three wells (containing three hair follicles each) was assigned to each test group, and was supplemented with different concentrations of test substances pre-diluted in the respective dissolvent 100× concentrated. An equal number of control follicles were cultured in complete hair follicle culture medium alone. Each experiment was repeated with hair follicles from at least three different age, pigmentation and sex matched donors. Every second day, each well was photo-documented, the pigmentation degree of each hair follicle determined, medium replaced and fresh supplements added. After 7 days hair follicles were snap frozen and stored at −80° C. Steviol was tested at two different concentrations (0.625 and 1.25 μM). […] Sphingosyl phosphorylcholine at 1 μM was used as a positive control as it is known from previous work to reduce the speed of in vitro hair graying. Remaining pigmentation is scored (+++). […]

[3] = Stabilization of steviol in acidic aqueous solution (discoloration, Pantone color index); assay type: physicochemical; settings: for Pantone index (color index of solution): 1% solution in water
Description: Steviol was dissolved at 1 wt.-% in water and the pH adjusted at different values as shown below. […] However, the more acidic the pH, the less discoloration was observed as reported by the patone color index. Color index of 1% Steviol solution in water at different pH: […]

Human hair follicles [4] = assay: Affymetrix DNA microarray gene expression in hair follicles; assay type: cell-based; settings: day 7 RNA
Description: (§1) Human hair follicles were obtained from human skin fragments (obtained by plastic surgery) and grown in supplemented William's E medium supplemented with penicillin/streptomycin, L-glutamine (2 mM), insulin (10 μg/ml and hydrocortisone (8 nM). Hair follicle growth was assessed via length measurements (day 0, 4, 7). Triiodothyronine (T3, 30 μM) was used as positive control. The effect of steviol (at 0.625 to 5 μg/ml) was tested in parallel. At day 7, RNA was extracted from hair follicles that had been subjected to different treatments (control, T3, steviol). RNA was processed for Affymetrix® DNA microarray analysis in order to identify effects of compounds on gene expression. Where appropriate, RNA expression levels were further quantified by RT-PCR using the ABI 7900 Taqman instrumentation. Global effects of steviol on gene expression were determined by transcriptomics i.e. DNA microarray analysis. The obtained data were processed with Genedata software tools.

Human hair follicles [5] = assay: RT-PCR mRNA level of marker genes in hair follicles; assay type: cell-based
Description: as §1, with “The effect of steviol (at 0.625 to 5 μg/ml) was tested in parallel.” left out, “The mRNA level” for “Global effects”, “some marker genes involved in growth and/or differentiation of cells in the skin and in hair follicle was further” for “steviol on gene expression were”, “RT-PCR and is shown in Table 3.” for “transcriptomics i.e. DNA microarray analysis. The obtained data were processed with Genedata software tools.”

Human hair follicles [6] = assay: Growth of human hair follicle (length measurements in culture); assay type: cell-based; settings: for Growth (% of control): hair follicle length
Description: as §1, with “instrumentation.” for “instrumentation. Global effects of steviol on gene expression were determined by transcriptomics i.e. DNA microarray analysis. The obtained data were processed with Genedata software tools.”

SMILES: CC1(C)[C@@H](O[C@H]2O[C@H](C(=O)O)[C@@H](O)[C@H](O)[C@H]2O[C@@H]2O[C@H](C(=O)O)[C@@H](O)[C@H](O)[C@H]2O)CC[C@]2(C)[C@H]3C(=O)C=C4[C@@H]5C[C@@](C)(C(=O)O)CC[C@]5(C)CC[C@@]4(C)[C@]3(C)CC[C@@H]12 [Glycyrrhizin, reference compound]
Melanin content, percentage of the control ([1]; 1.5 mM): 132%

SMILES: CCCCCCCCCCCCC/C=C/[C@@H](O)[C@@H](N)COP(=O)([O-])OCC[N+](C)(C)C [Sphingosylphosphorylcholine, reference compound]
Pigmentation (remaining hair follicle pigmentation score) ([2]; 1 microM): +++

Pantone index (color index of solution) ([3]; pH 6): 155 | Pantone index (color index of solution) ([3]; pH 6.5): 155 | Pantone index (color index of solution) ([3]; pH 7): 158 | Pantone index (color index of solution) ([3]; pH 9): 160 | Time until solution turns brown (instability) ([3]; 1 wt.-% in water, pH 9): ≤ 1 days
SMILES: C=C1C[C@@]23CC[C@H]4[C@@](C)(CCC[C@@]4(C)C(=O)O)[C@@H]2CC[C@]1(O)C3 [Steviol, steviol]
Melanin content, percentage of the control ([1]; 0.25 microM): 109% | Production of melanin in human melanocytes (in words) ([1]; 0.25 to 1 micro M): clear dose dependent positive effect on the production of melanin | Melanin content, percentage of the control ([1]; 0.5 micro M): 124% | Melanin content, percentage of the control ([1]; 1 micro M): 130% | Pigmentation (remaining hair follicle pigmentation score) ([2]; 0.625 microM): +++ | Pigmentation (remaining hair follicle pigmentation score) ([2]; 1.25 microM): ++ | Ratio of steviol-treated/untreated, gene CASP8 and FADD-like apoptosis regulator (Human hair follicles [4]): 2.58 | Ratio of steviol-treated/untreated, gene Chemokine (C-X-C motif) ligand 12 (stromal cell-derived factor 1) (Human hair follicles [4]): 2.22 | Ratio of steviol-treated/untreated, gene Collagen, type IV, alpha 6 (Human hair follicles [4]): 2.04 | Ratio of steviol-treated/untreated, gene Fibroblast growth factor 7 (keratinocyte growth factor) (Human hair follicles [4]): 2.91 | Ratio of steviol-treated/untreated, gene Insulin-like growth factor 1 receptor (Human hair follicles [4]): 2.00 | Ratio of steviol-treated/untreated, gene Integrin, alpha 6 (Human hair follicles [4]): 2.15 | Ratio of steviol-treated/untreated, gene TIMP metallopeptidase inhibitor 3 (Human hair follicles [4]): 2.32 | Ratio of steviol-treated/untreated, gene Topoisomerase (DNA) II alpha 170 kDa (Human hair follicles [4]): 2.45 | Ratio of steviol-treated/untreated, gene Transmembrane protein with EGF-like and two follistatin-like domains 2 (Human hair follicles [4]): 3.10 | Fold changes (versus control), Integrin alpha-6 mRNA (Human hair follicles [5]; 0.625 μg/mL): 1.62 ± 0.06 | Fold changes (versus control), COX-2 mRNA (Human hair follicles [5]; 1.25 μg/mL): 0.46 ± 0.17 | Fold changes (versus control), HO-1 mRNA (Human hair follicles [5]; 1.25 μg/mL): 0.64 ± 0.08 | Fold changes (versus control), Involucrin mRNA (Human hair follicles [5]; 1.25 μg/mL): 0.51 ± 0.22 | Fold changes (versus control), Keratin 6 mRNA (Human hair follicles [5]; 10 μg/mL): 1.33 ± 0.11 | Growth (% of control) (Human hair follicles [6]; 0.625 μg/mL): 122 % of control | Growth (% of control) (Human hair follicles [6]; 1.25 μg/mL): 121 % of control | Growth (% of control) (Human hair follicles [6]; 2.5 μg/mL): 113 % of control | Growth (% of control) (Human hair follicles [6]; 5 μg/mL): 117 % of control | Elongation of hair follicles (in words) (Human hair follicles [6]; 0.625 to 5 μg/ml): dose-dependently favoured the elongation of hair follicles

SMILES: N[C@@H](Cc1cc(I)c(Oc2ccc(O)c(I)c2)c(I)c1)C(=O)O [Triiodothyronine, reference compound]
Growth (% of control) (Human hair follicles [6]; 30 μM, day 0, 4, 7): 133 % of control
